Test results published in PubChem BioAssay AID1963856 (Molecular Pharmacology Branch, DTP, NCI, 2024).
pIC50: −log10 of the molar value.

Test system: LG0567-F671-PDC KRAS tumor spheroid viability
Test: Anticancer human tumor LG0567-F671-PDC patient-derived lung adenocarcinoma cell line growth inhibition [KRAS2]
Details: spheroids with HUVEC and MSC; for viability, T/C: stronger effect = lower value; for pIC50: curve of first compound
Method in brief: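 Combination screen of spheroid viability in tumor-cell co-cultures with endothelial (HUVEC) and mesenchymal stem cell stroma. Each agent was tested in half-log dilutions, topping at clinical Cmax or at 10 microM without a known Cmax.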

[1] = second compound 0.1 µM, first compound 0.0316 µM
[2] = second compound 0.1 µM, first compound 0.1 µM
[3] = second compound 0.1 µM, first compound 0.316 µM
[4] = second compound 0.1 µM, first compound 1 µM
[5] = second compound 0.1 µM, first compound 3.16 µM
[6] = second compound 0.1 µM, first compound 10 µM
[7] = second compound 0.316 µM, first compound 0.0316 µM
[8] = second compound 0.316 µM, first compound 0.1 µM
[9] = second compound 0.316 µM, first compound 0.316 µM
[10] = second compound 0.316 µM, first compound 1 µM
[11] = second compound 0.316 µM, first compound 3.16 µM
[12] = second compound 0.316 µM, first compound 10 µM
[13] = second compound 1 µM, first compound 0.0316 µM
[14] = second compound 1 µM, first compound 0.1 µM
[15] = second compound 1 µM, first compound 0.316 µM
[16] = second compound 1 µM, first compound 1 µM
[17] = second compound 1 µM, first compound 3.16 µM
[18] = second compound 1 µM, first compound 10 µM
[19] = second compound 3.16 µM, first compound 0.0316 µM
[20] = second compound 3.16 µM, first compound 0.1 µM
[21] = second compound 3.16 µM, first compound 0.316 µM
[22] = second compound 3.16 µM, first compound 1 µM
[23] = second compound 3.16 µM, first compound 3.16 µM
[24] = second compound 3.16 µM, first compound 10 µM
[25] = second compound 10 µM, first compound 0.0316 µM
[26] = second compound 10 µM, first compound 0.1 µM
[27] = second compound 10 µM, first compound 0.316 µM
[28] = second compound 10 µM, first compound 1 µM
[29] = second compound 10 µM, first compound 3.16 µM
[30] = second compound 10 µM, first compound 10 µM
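Further: drug exposure lasted seven days after spheroids formed for three days.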
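Wherever viability, T/C is given: 100% = DMSO vehicle control viability.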

Row | Compound | pIC50 (second compound 0.1 µM) | pIC50 (second compound 0.316 µM) | pIC50 (second compound 1 µM) | pIC50 (second compound 3.16 µM) | viability, T/C [1] [%] | viability, T/C [2] [%] | viability, T/C [3] [%] | viability, T/C [4] [%] | viability, T/C [7] [%] | viability, T/C [8] [%] | viability, T/C [9] [%] | viability, T/C [10] [%] | viability, T/C [13] [%] | viability, T/C [14] [%] | viability, T/C [15] [%] | viability, T/C [16] [%] | viability, T/C [19] [%] | viability, T/C [20] [%] | viability, T/C [21] [%] | viability, T/C [22] [%] | also measured
1 | CC1(C)CCC(CN2CCN(c3ccc(C(=O)NS(=O)(=O)c4ccc(NCC5CCOCC5)c([N+](=O)[O-])c4)c(Oc4cnc5[nH]ccc5c4)c3)CC2)=C(c2ccc(Cl)cc2)C1 |  |  |  |  |  |  |  |  |  |  |  |  |  |  |  |  |  |  |  |  | viability, T/C (compound 0.0316 µM): 98.2% [middle of 5 runs]; viability, T/C (compound 0.1 µM): 94.7% [middle of 5 runs]; viability, T/C (compound 0.316 µM): 87% [middle of 5 runs]; viability, T/C (compound 1 µM): 89.9% [middle of 5 runs]; viability, T/C (compound 3.16 µM): 45.9% [middle of 5 runs]; viability, T/C (compound 10 µM): 12.4% [middle of 5 runs]; IC50 (curve of compound): 2.84 µM [middle of 5 runs]
2 | COc1cc2nccc(Oc3ccc(NC(=O)C4(C(=O)Nc5ccc(F)cc5)CC4)cc3)c2cc1OC + COc1cc2nc(C)nc(NC(C)c3cc(N)cc(C(F)(F)F)c3)c2cc1OC1CCOC1 | < 5.00 | > 7.50 | > 7.50 | 6.69 | 78.6 | 71.5 | 56.5 | 32.8 | 61.5 | 58.6 | 45.4 | 25.6 | 43.8 | 53 | 42.7 | 20.9 | 63.7 | 62 | 42.1 | 24.8 | pIC50 (second compound 10 µM): 6.76; viability, T/C [5]: 101%; viability, T/C [6]: 95.6%; viability, T/C [11]: 87.3%; viability, T/C [12]: 74%; viability, T/C [17]: 79.8%; viability, T/C [18]: 53.3%; viability, T/C [23]: 9.35%; viability, T/C [24]: 72.6%; viability, T/C [25]: 71.7%; viability, T/C [26]: 54.2%; viability, T/C [27]: 49.2%; viability, T/C [28]: 37.4%; viability, T/C [29]: 1.24%; viability, T/C [30]: 78.7%
3 | CC(C)NCC(C(=O)N1CCN(c2ncnc3c2C(C)CC3O)CC1)c1ccc(Cl)cc1 (configuration not stated) + CNCc1ccccc1-c1csc(C(C)Nc2nc(C)nc3cc(OC)c(OC)cc23)c1 | < 5.00 | < 5.00 | 6.17 | > 7.50 | 78.9 | 72.3 | 53 | 62 | 68.2 | 54.6 | 46.7 | 54.5 | 60.4 | 63.5 | 52.3 | 42.8 | 0.25 | 0.18 | 0.11 | 1.4 | pIC50 (second compound 10 µM): > 7.50; viability, T/C [5]: 70.9%; viability, T/C [6]: 61.6%; viability, T/C [11]: 59.1%; viability, T/C [12]: 54.6%; viability, T/C [17]: 48.3%; viability, T/C [18]: 42.2%; viability, T/C [23]: 0.12%; viability, T/C [24]: 0.97%; viability, T/C [25]: 0.84%; viability, T/C [26]: 0.44%; viability, T/C [27]: 0.13%; viability, T/C [28]: 0.12%; viability, T/C [29]: 2.26%; viability, T/C [30]: 0.6%
4 | COC(=O)c1ccc2c(C(=Nc3ccc(N(C)C(=O)CN4CCN(C)CC4)cc3)c3ccccc3)c(O)[nH]c2c1 + C=CC(=O)N1CCN(c2nc(OCC3CCCN3C)nc3c2CCN(c2cccc4cccc(C)c24)C3)CC1CC#N | > 7.50 | > 7.50 | > 7.50 | > 7.50 | 21.6 | 20.4 | 23.4 | 27.4 | 23.2 | 21.1 | 22.7 | 27.8 | 26.6 | 26.3 | 27.6 | 28.8 | 17.9 | 29.2 | 13.2 | 0.34 | pIC50 (second compound 0.0316 µM): > 7.50; viability, T/C (second compound 0.0316 µM, first compound 0.0316 µM): 23.7%; viability, T/C (second compound 0.0316 µM, first compound 0.1 µM): 23.2%; viability, T/C (second compound 0.0316 µM, first compound 0.316 µM): 21.9%; viability, T/C (second compound 0.0316 µM, first compound 1 µM): 30.4%; viability, T/C (second compound 0.0316 µM, first compound 3.16 µM): 26.8%; viability, T/C (second compound 0.0316 µM, first compound 10 µM): 31.9%; viability, T/C [5]: 26.1%; viability, T/C [6]: 27%; viability, T/C [11]: 27.7%; viability, T/C [12]: 28.3%; viability, T/C [17]: 23.9%; viability, T/C [18]: 23.4%; viability, T/C [23]: 0.12%; viability, T/C [24]: 0.93%
5 | CCN1CCN(Cc2ccc(Nc3ncc(F)c(-c4cc(F)c5nc(C)n(C(C)C)c5c4)n3)nc2)CC1 + CC1OCC2(CCN(c3cnc(Sc4ccnc(N)c4Cl)c(N)n3)CC2)C1N | 8.19 | > 8.50 | > 8.50 | > 8.50 | 41.1 | 41.2 | 39.9 | 39.1 | 27.7 | 25.5 | 23 | 24.2 | 20.7 | 17.7 | 16.5 | 20.5 | 16.1 | 10.6 | 10.9 | 14.9 | pIC50 (second compound 10 µM): > 8.50; viability, T/C (second compound 0.1 µM, first compound 0.00316 µM): 54.8%; viability, T/C (second compound 0.1 µM, first compound 0.01 µM): 48.2%; viability, T/C (second compound 0.316 µM, first compound 0.00316 µM): 35.5%; viability, T/C (second compound 0.316 µM, first compound 0.01 µM): 30.2%; viability, T/C (second compound 1 µM, first compound 0.00316 µM): 26%; viability, T/C (second compound 1 µM, first compound 0.01 µM): 23.1%; viability, T/C (second compound 3.16 µM, first compound 0.00316 µM): 15.2%; viability, T/C (second compound 3.16 µM, first compound 0.01 µM): 16.7%; viability, T/C (second compound 10 µM, first compound 0.00316 µM): 10.4%; viability, T/C (second compound 10 µM, first compound 0.01 µM): 7.73%; viability, T/C [25]: 6.15%; viability, T/C [26]: 6.13%; viability, T/C [27]: 7.13%; viability, T/C [28]: 15.3%
